The values below come from US10472346B2, “Potent gamma-secretase modulators” (The General Hospital Coporation, priority 2014, dated 2019).

For this test, the system named is Aβ42. Put plainly: Aβ42 IC50 assay (SHSYSY-APP cell-based screening, UCSD sandwich Aβ42 ELISA). An excerpt: FIG. 8: Representative concentration response curves of Compound 1 using our primary and orthogonal medium throughput SHSYSY-APP cell-based screening assays (10). Compounds are first screened two times in triplicate in our UCSD sandwich Aβ42 ELISA on sequential days and the average of the two assays must be within 3-fold of each other before being entered into the CDD relational database. The UCSD sandwich ELISA assay can easily handle 20 compounds per week. Compounds with Aβ42 IC50 values <100 nM continue through the testing funnel. The Z′ score and the % CV for the UCSD Aβ42 sandwich ELISA assay are 0.8 and 4, respectively. For the Meso Scale triplex assay the Z′ scores are 0.7, 0.9 and 0.6 Aβ42, Aβ40 and Aβ38, respectively and the % CV's are 7, 2 and 1 for Aβ42, Aβ40 and Aβ38, respectively. Aβ total peptides are measured using a sandwich ELISA.
Tabular Results of A1142 Assays Conducted on Compounds of Examples 5-102. Assays are Aβ42 IC50 (nM).
(In general: An ELISA detects its analyte on a solid surface through an enzyme-linked reagent.)

`COC[C@H](C)Nc1nnc(-c2ccc(-n3cnc(C)c3)c(OC)n2)cc1C` [Example 62, (S)-6-(6-methoxy-5-(4-methyl-1H-imidazol-1-yl)pyridin-2-yl)-N-(1-methoxypropan-2-yl)-4-methylpyridazin-3-amine]: the IC50 (usually the midpoint of a concentration-inhibition curve) came to 2160 nM.

Compound `COc1nc(-c2cc(C)c(N(C)[C@@H](C)c3ccc(F)cc3)nn2)ccc1-n1cnc(C)c1` [Example 19, (S)—N-(1-(4-fluorophenyl)ethyl)-6-(6-methoxy-5-(4-methyl-1H-imidazol-1-yl)pyridin-2-yl)-N,4-dimethylpyridazin-3-amine] displayed an IC50 of 240 nM.

Take `COc1nc(-c2cc(C)c(N[C@@H](C)c3cccc(C)c3)nn2)ccc1-n1cnc(C)c1` [Example 48, (S)-6-(6-methoxy-5-(4-methyl-1H-imidazol-1-yl)pyridin-2-yl)-4-methyl-N-(1-(m-tolyl)ethyl)pyridazin-3-amine]: the IC50 was determined as 6.3 nM.

Compound `COc1nc(-c2cc(C)c(N[C@@H](C)c3ccccc3C)nn2)ccc1-n1cnc(C)c1` [Example 55, (S)-6-(6-methoxy-5-(4-methyl-1H-imidazol-1-yl)pyridin-2-yl)-4-methyl-N-(1-(o-tolyl)ethyl)pyridazin-3-amine] registered an IC50 of 3.3 nM.

In the case of `COc1nc(-c2cc(C)c(NC(C)c3nc4ccccc4o3)nn2)ccc1-n1cnc(C)c1` (racemic) [Example 74, (+/−)—N-(1-(benzo[d]oxazol-2-yl)ethyl)-6-(6-methoxy-5-(4-methyl-1H-imidazol-1-yl)pyridin-2-yl)-4-methylpyridazin-3-amine], the IC50 worked out at 42 nM.

For the compound `CCC[C@H](Nc1nnc(-c2ccc(-n3cnc(C)c3)c(OC)n2)cc1C)c1ccccc1F` [Example 86, (S)—N-(1-(2-fluorophenyl)butyl)-6-(6-methoxy-5-(4-methyl-1H-imidazol-1-yl)pyridin-2-yl)-4-methylpyridazin-3-amine], the IC50 is 4.5 nM.

In turn, `COc1nc(-c2cc(C)c(N[C@@H](C)CO)nn2)ccc1-n1cnc(C)c1` [Example 64, (S)-2-((6-(6-methoxy-5-(4-methyl-1H-imidazol-1-yl)pyridin-2-yl)-4-methylpyridazin-3-yl)amino) propan-1-ol] showed an IC50 of over 10000 nM.

Consider `COc1nc(-c2cc(C)c(N[C@@H](C)c3ccc(C)cc3)nn2)ccc1-n1cnc(C)c1` [Example 42, (S)-6-(6-methoxy-5-(4-methyl-1H-imidazol-1-yl)pyridin-2-yl)-4-methyl-N-(1-(p-tolyl)ethyl)pyridazin-3-amine], for which the concentration for half-maximal inhibition (IC50) is 7.5 nM.

Compound `COc1cc([C@H](C)Nc2nnc(-c3ccc(-n4cnc(C)c4)c(OC)n3)cc2C)ccc1F` [Example 47, (S)—N-(1-(4-fluoro-3-methoxyphenyl)ethyl)-6-(6-methoxy-5-(4-methyl-1H-imidazol-1-yl)pyridin-2-yl)-4-methylpyridazin-3-amine] came in with an IC50 of 15 nM.

Take `COc1nc(-c2cc(C)c(N[C@@H](C)c3cccc(F)c3)nn2)ccc1-n1cnc(C)c1` [Example 38, (S)—N-(1-(3-fluorophenyl)ethyl)-6-(6-methoxy-5-(4-methyl-1H-imidazol-1-yl)pyridin-2-yl)-4-methylpyridazin-3-amine]: the concentration for half-maximal inhibition (IC50) is 7 nM.

Turning to `COc1nc(-c2cc(C)c(NC3CCCC3)nn2)ccc1-n1cnc(C)c1` [Example 78, N-cyclopentyl-6-(6-methoxy-5-(4-methyl-1H-imidazol-1-yl)pyridin-2-yl)-4-methylpyridazin-3-amine], it took 61 nM to reach half-maximal inhibition (IC50).

`COc1nc(-c2cc(C)c(N[C@@H](C)C3CCCCC3)nn2)ccc1-n1cnc(C)c1` [Example 58, (S)—N-(1-cyclohexylethyl)-6-(6-methoxy-5-(4-methyl-1H-imidazol-1-yl)pyridin-2-yl)-4-methylpyridazin-3-amine] gave a concentration for half-maximal inhibition (IC50) of 12 nM.

On to `CCC[C@H](Nc1nnc(-c2ccc(-n3cnc(C)c3)c(OC)n2)cc1C)c1ccc(F)cc1` [Example 79, (S)—N-(1-(4-fluorophenyl)butyl)-6-(6-methoxy-5-(4-methyl-1H-imidazol-1-yl)pyridin-2-yl)-4-methylpyridazin-3-amine], for which it took 7.5 nM to reach half-maximal inhibition (IC50).

As to `COc1nc(-c2cc(C)c(N[C@@H](C)c3ccc(F)c(C)c3)nn2)ccc1-n1cnc(C)c1` [Example 51, (S)—N-(1-(4-fluoro-3-methylphenyl)ethyl)-6-(6-methoxy-5-(4-methyl-1H-imidazol-1-yl)pyridin-2-yl)-4-methylpyridazin-3-amine], the IC50 came out at 8.3 nM.

`COc1nc(-c2cc(C)c(N[C@H](c3ccc(F)cc3)C(C)(C)O)nn2)ccc1-n1cnc(C)c1` [Example 102, (R)-1-(4-fluorophenyl)-1-((6-(6-methoxy-5-(4-methyl-1H-imidazol-1-yl)pyridin-2-yl)-4-methylpyridazin-3-yl)amino)-2-methylpropan-2-ol] displayed an IC50 of 6 nM. This IC50 and that of the compound before are within 1.5-fold of each other.

`COc1nc(-c2nnc(N[C@@H](C)c3ccccc3)c(C)c2C)ccc1-n1cnc(C)c1` [Example 17, (S)-6-(6-methoxy-5-(4-methyl-1H-imidazol-1-yl)pyridin-2-yl)-4,5-dimethyl-N-(1-phenylethyl)pyridazin-3-amine] displayed a half-maximal inhibitory concentration (IC50) of 37 nM.

`COc1ccc([C@H](C)Nc2nnc(-c3ccc(-n4cnc(C)c4)c(OC)n3)cc2C)cc1` [Example 36, (S)-6-(6-methoxy-5-(4-methyl-1H-imidazol-1-yl)pyridin-2-yl)-N-(1-(4-methoxyphenyl)ethyl)-4-methylpyridazin-3-amine] had an IC50 of 6.5 nM.

`COc1nc(-c2cc(C)c(N[C@@H](C)c3cc(F)c(F)c(F)c3)nn2)ccc1-n1cnc(C)c1` [Example 52, (S)-6-(6-methoxy-5-(4-methyl-1H-imidazol-1-yl)pyridin-2-yl)-4-methyl-N-(1-(3,4,5-trifluorophenyl)ethyl)pyridazin-3-amine] gave a half-inhibitory concentration (IC50) of 5 nM. The IC50 values of the last two compounds are within 1.5-fold of each other.

Take `COc1nc(-c2nnc(N[C@@H](C)c3ccc(F)cc3)c3c2CCC3)ccc1-n1cnc(C)c1` [Example 29, (S)—N-(1-(4-Fluorophenyl)ethyl)-4-(6-methoxy-5-(4-methyl-1H-imidazol-1-yl)pyridin-2-yl)-6,7-dihydro-5H-cyclopenta[d]pyridazin-1-amine]: the IC50 was 12.8 nM.

For the compound `COc1nc(-c2cc(C)c(NC(C)Cc3ccc(F)cc3)nn2)ccc1-n1cnc(C)c1` (racemic) [Example 54, (+/−)—N-(1-(4-fluorophenyl)propan-2-yl)-6-(6-methoxy-5-(4-methyl-1H-imidazol-1-yl)pyridin-2-yl)-4-methylpyridazin-3-amine], inhibition was half-maximal at 29 nM (IC50). Against the preceding compound, the IC50 is about 2.3-fold higher.

`COc1nc(-c2ccc(NC(C)(C)c3ccc(F)cc3)nn2)ccc1-n1cnc(C)c1` [Example 23, N-(2-(4-Fluorophenyl)propan-2-yl)-6-(6-methoxy-5-(4-methyl-1H-imidazol-1-yl)pyridin-2-yl)pyridazin-3-amine] gave an IC50 of 22 nM.

Compound `COc1nc(-c2cc(C)c(N[C@@H](C)c3ccc(F)cc3C)nn2)ccc1-n1cnc(C)c1` [Example 69, (S)—N-(1-(4-fluoro-2-methylphenyl)ethyl)-6-(6-methoxy-5-(4-methyl-1H-imidazol-1-yl)pyridin-2-yl)-4-methylpyridazin-3-amine] gave an IC50 of 4.5 nM. This IC50 lies about 4.9-fold lower than the previous one.

`COc1nc(-c2cc(C)c(N[C@@H](C)c3cccc(C)c3C)nn2)ccc1-n1cnc(C)c1` [Example 100, (S)—N-(1-(2,3-dimethylphenyl)ethyl)-6-(6-methoxy-5-(4-methyl-1H-imidazol-1-yl)pyridin-2-yl)-4-methylpyridazin-3-amine] yielded an IC50 of 4 nM.

For the compound `COc1nc(-c2cc(C)c(N[C@H](C)C(C)C)nn2)ccc1-n1cnc(C)c1` [Example 66, (R)-6-(6-methoxy-5-(4-methyl-1H-imidazol-1-yl)pyridin-2-yl)-4-methyl-N-(3-methylbutan-2-yl)pyridazin-3-amine], it took 53 nM to reach half-maximal inhibition (IC50).

In the case of `CC[C@H](Nc1nnc(-c2ccc(-n3cnc(C)c3)c(OC)n2)cc1C)c1ccc(F)cc1` [Example 40, (S)—N-(1-(4-fluorophenyl)propyl)-6-(6-methoxy-5-(4-methyl-1H-imidazol-1-yl)pyridin-2-yl)-4-methylpyridazin-3-amine], inhibition was half-maximal at 6.5 nM (IC50).

In turn, `COc1nc(-c2cc(C)c(NC3CCCCC3)nn2)ccc1-n1cnc(C)c1` [Example 81, N-cyclohexyl-6-(6-methoxy-5-(4-methyl-1H-imidazol-1-yl)pyridin-2-yl)-4-methylpyridazin-3-amine] gave an IC50 of 27 nM.

The compound `COc1nc(-c2cc(C)c(NC3CCC(F)(F)CC3)nn2)ccc1-n1cnc(C)c1` [Example 85, N-(4,4-difluorocyclohexyl)-6-(6-methoxy-5-(4-methyl-1H-imidazol-1-yl)pyridin-2-yl)-4-methyl pyridazin-3-amine] gave an IC50 of 70 nM.

As for `COc1nc(-c2cc(C)c(N[C@@H](C)c3ccc(Cl)cc3)nn2)ccc1-n1cnc(C)c1` [Example 31, (S)—N-(1-(4-chlorophenyl)ethyl)-6-(6-methoxy-5-(4-methyl-1H-imidazol-1-yl)pyridin-2-yl)-4-methylpyridazin-3-amine], 5.8 nM corresponded to half-maximal inhibition (IC50).

`COc1ccccc1[C@H](C)Nc1nnc(-c2ccc(-n3cnc(C)c3)c(OC)n2)cc1C` [Example 41, (S)-6-(6-methoxy-5-(4-methyl-1H-imidazol-1-yl)pyridin-2-yl)-N-(1-(2-methoxyphenyl)ethyl)-4-methylpyridazin-3-amine] returned an IC50 of 17.5 nM. This IC50 is about 3-fold higher than that of the compound before.

As to `COc1nc(-c2ccc(N[C@@H](C)c3ccccc3)nn2)ccc1-n1cnc(C)c1` [Example 22, (S)-6-(6-methoxy-5-(4-methyl-1H-imidazol-1-yl)pyridin-2-yl)-N-(1-phenylethyl)pyridazin-3-amine], the half-maximal inhibitory concentration (IC50) turned out to be 16 nM.
